Patent US6686341B1, “Nutritional compositions which contain slightly negatively charged, non-digestible polysaccharides and use thereof for reducing transport through tight junctions” (N.V. Nutricia, priority 1999, dated 2004)

Test system: tight junctions (duodenum biopsies)
Assay: Ussing chamber: HRP permeability of duodenum suction biopsies from children suffering from microvillus inclusion disease
Type: cell-based, human
Settings: after adding 4.2 g to the luminal compartment
From the text: Suction biopsies of the duodenum were taken from two children suffering from microvillus inclusion disease.

carboxydextran [70 kD carboxydextran]
HRP in the paracellular spaces or tight junctions by electron microscopy: No further HRP could be detected
